The term inhibition denotes the percentage by which the read-out fell short of the control.

The text below walks through data of EP0142057A2, “Thiazoloquinazoline derivatives, their preparation and pharmaceutical compositions containing same” (F. HOFFMANN-LA ROCHE AG, priority 1983, dated 1985).

One assay concerns the target T1, TXA2 synthase (Homo sapiens, UniProt P24557).
T1 construct: using microsomal fractions from human platelets as enzyme source; from tissue; host or cells: human platelets (microsomal fraction)
T1 sequence (P24557 1-533): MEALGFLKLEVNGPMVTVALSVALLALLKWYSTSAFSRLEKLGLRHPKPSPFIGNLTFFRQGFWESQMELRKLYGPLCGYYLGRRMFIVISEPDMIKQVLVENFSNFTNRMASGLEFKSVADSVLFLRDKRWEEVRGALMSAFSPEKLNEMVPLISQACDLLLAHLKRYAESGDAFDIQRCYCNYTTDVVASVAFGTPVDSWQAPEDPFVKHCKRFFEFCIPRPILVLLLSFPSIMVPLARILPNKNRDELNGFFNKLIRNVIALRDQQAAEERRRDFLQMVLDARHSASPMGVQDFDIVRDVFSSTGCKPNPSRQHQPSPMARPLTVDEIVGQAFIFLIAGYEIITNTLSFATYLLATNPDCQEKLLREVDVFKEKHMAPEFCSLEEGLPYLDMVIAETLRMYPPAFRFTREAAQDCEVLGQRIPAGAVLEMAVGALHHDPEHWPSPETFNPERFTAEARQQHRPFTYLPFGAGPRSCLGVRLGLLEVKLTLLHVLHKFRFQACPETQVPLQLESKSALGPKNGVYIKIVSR
The assay can be described thus: Thromboxane synthase inhibition, in vitro. The format is biochemical. Conditions: at 10^-7M; microsomal fractions from human platelets; read-out: TXA2Synthase Inhibition (% at 10^-7M). As to the method:
TXA2 synthase activity is measured by following the conversion of ^14C-prostaglandin endoperoxide (PGH2) to ^14C-thromboxane A2 (TXA2) using microsomal fractions from human platelets as enzyme source. In the aqueous incubation medium, the TXA2 decomposes rapidly into TXB2. The amount of TXA2 synthase is adjusted so that under the conditions of the assay approximately 80-90% of the substrate, PGH2, is converted to product in control tubes. To prepare ^14C-PGH2, ^14C-AA (50-60 mCi/mmole: Rose Chem.) is incubated with sheep seminal vesicular gland microsomes for 1.5 minutes at 37°C and then the ^14C-PGH2 is extracted with diethylether, purified on columns of Sephadex LH-20 or silicic acid, and stored in acetone at -70°C. Incubations are done as follows. Sufficient ^14C-PGH2 to yield a final substrate concentration of 10 µM (30,000 cpm) is added to the incubation tubes and then the acetone is removed under nitrogen. The tubes are placed in an ice bath and then 215 1 of ice cold phosphate buffered saline, 10 1 of ethanol (control) or of test drug in ethanol, and 25 1 of the microsomal suspension are added with mixing in that order as rapidly as possible. The tubes are incubated at 22°C for 2 minutes, the reaction is stopped and then the radioactive products and the uncoverted PGH2 are extracted and analyzed by thin layer chromatography. […] The amount of ^14C-PGH2 converted to products was used as a measure of TXA2 synthase activity. Inhibitors were tested initially at a final concentration of 100 µM. Results obtained with representative compounds of the present invention in this assay are summarized hereafter in Table I.

Assay [1] concerns Rat Passive Cutaneous Anaphylaxis. The assay can be described thus: Passive cutaneous anaphylaxis (PCA) assay. The assay is classed as in vivo, rats. The following applies: for ED50: Rattus norvegicus, po, doses administered orally, read-out: Rat PCA Test ID50. On the procedure: Male Sprague-Dawley rats obtained from Charles River Breeding Laboratories were used in the PCA assay. Two methods were used to prepare serum IgE antibody which is specific for egg albumin. In the first method homocytotropic antibody was obtained by injecting 180 to 200 g rats with 1.0 mg of egg albumin (Difco Laboratories, Detroit, Michigan) intramuscularly and 6.4 x 10^10 organisms of Bordetella pertussis vaccine (Eli Lilly and Co., Indiana- polis, Ind.) intraperitoneally. Serum collected from each animal 18-20 days after sensitization was pooled, separated into 1 ml aliquots, and kept frozen until further use. In the second method, rats weighing 150-200 g were immunized by the intraperitoneal injection of 0.5 ml of Bordetella pertussis vaccine (Cannaught Laboratories, Willowdale, Toronto, Canada, 20 optical units/ml) and 100 μg of egg albumin (Nutritional Biochemicals Corp., Cleveland. Ohio). Sixteen days later, Nipostrongylus brasi- […] (3000 larvae/0.1 ml) was administered subcutaneously, and on the 21st day, 10 μg of egg albumin in 0.5 ml of normal saline was administered intraperitoneally. On the 30th day, blood samples were collected by heart puncture; the serum was separated by centrifugation and refrigerated overnight at 5°C. After a 24 hour period, the samples were assayed for antibody activity by the passive cutaneous anaphylaxis method. Those serum samples which produced an average wheal diameter of 3 mm or greater following an intradermal injection of 0.05 ml of a 1:50 dilution of serum in normal saline were pooled, divided into aliquots, and kept frozen until further use. […] The passive cutaneous anaphylaxis assay was carried out in rats weighing 190-220 g in a manner similar to that of Goose and Blair (J. Goose and A.M.J.N. Blair, Immunology, 16, 749 [1969]). Rat IgE antiovalbumin in serum was prepared as described above. The IgE antiserum was titered with normal saline so that injections of 0.05 ml produced skin wheal diameters which averaged 7 to 10 mm. After a 24 hour sensitization period, 1 ml of an aqueous solution containing a mixture of 8 mg of egg albumin (Nutritional Biochemical Corp.. Cleveland, Ohio) and 5 mg of Evans blue dye ([…] Chemical Co., Inc., Harriman, N.Y.) was administered intravenously to each rat. Forty minutes after challenge, each animal was sacrificed by cervical dislocation, and the dorsal skin was removed for examination. The long and short axes of the blued area were measured on the inner surface of the skin with a metric vernier caliper (VWR Scientific Division of Univar, Rochester, N.Y.), and the average diameter was determined for each reaction. […] The procedure was usually conducted on five animals in the control and each of the treatment groups. Statistical analysis of the test results was conduced by the Student's t test of control vs. various treatments. The ID50 and 95% limits were determined by a modification of the Berkson minimum logic chi square method (J. Berkson, J. Am. Stat. Assoc., 48, 565 [1953]).

The test system of assay [2] is Guinea Pig Bronchoconstriction. Nature of the assay: Guinea pig bronchoconstriction, in vivo (leukotriene E4 challenge). Further details: species or system guinea pigs. The following applies: for inhibition: 10 mg/kg, i.v.; for inhibition / Guinea Pig Broncho-constriction % Inhibition (10 mg/kg i.v.): leukotriene E4 challenge; for oral activity: orally 100 mg/kg, 2 hours prior to challenge with leukotriene E4; for Guinea Pig Broncho-constriction % Inhibition (10 mg/kg i.v.): Table II. On the procedure: Male guinea pigs (Hostley strain) weighing 300 to 450 grams are anesthetized with urethane (2 g/kg) intraperitoneally and a polyethylene cannula is inserted into the jugular vein for intravenous drug administration. Tracheal pressure is recorded from a cannula inserted in the trachea and connected to a Statham pressure transducer. Respiration is paralyzed with succinyl choline (1.2 mg/kg, i.v.) and the animals are mechanically respirated (Howard rodent respirator) at 40 breaths/minute and 2.5 ml tidal volume. Two minutes thereafter, propranolol (0.1 mg/kg, i.v.) is administered. Five minutes later, the animals are pretreated intravenously for 30 seconds (at 10 mg/kg) with test drug or control vehicle. The animals are subsequently challenged with a maximally constrictory dose of leukotriene E4 also administered intravenously. The change (cm H20) between pre and peak ventilatory pressure readings is averaged for three control animals and five drug treated animals. The percent inhibition is calculated from the following formula: [formula]
For determination of oral activity spontaneously breathing animals are pretreated orally with drugs (100 mg/kg) for 2 hours (at 100 mg/kg) prior to challenge with leukotriene E4. […] When tested orally in this assay the two compounds of the invention were active. Results obtained with representative compounds of the present invention in this assay are summarized hereafter in Table II.

For assay [3], the system named is vascular permeability in rat skin. Nature of the assay: Rat skin permeability, in vivo (LTE4-induced skin wheal). Further details: species or system rats. The following applies: for reduction in the skin wheal size: 10 mg/kg i.v.; for Rat Skin Permeability % Inhibition (10mg/kg iv): Table II, LTE4 wheal. On the procedure: In this model the ability of LTE4 to increase vascular permeability in rat skin was utilized. Anesthetized rats, pretreated for 30 minutes with an antihistamine pyrilamine maleate, 50 mg/kg i.p. and a serotonin antagonist, methyl- […] maleate (4 mg/kg i.p.), were injected intradermally with a standard dose of LTE4 which gave a maximum wheal (in 0.05 ml saline). After introduction of test drug (at 10 mg/kg i.v.) the animals were immediately treated intravenously with Evans blue dye i.v. (0.5%) in the tail vein resulting in the formation of a skin wheal. Thirty minutes later the animals were sacrificed and the skin wheal size was measured. The average response in 5 animals (4 intradermal injections per animal) treated with test compound was compared to that obtained in a similar group of control animals to determine the percent inhibition by the drug.

For assay [4] the test system is unchanged. Described as above. Further details: species or system rats. Conditions: for oral activity: tested orally.

Where a name gives a salt, the structure may show the parent alone.

Consider `CC(C)c1ccc2nc3sc(C(=O)NCCCCCCc4cccnc4)cn3c(=O)c2c1`, for which the inhibition at 0.1 µM at TXA2 synthase is 36%.

For the molecule `CCN(CC)CCNC(=O)c1cn2c(=O)c3cc(CC(C)C)ccc3nc2s1`, the “Rat PCA Test (% Inhibition) 16 mg/kg ip” value in assay [1] is 31%.

As to `CCN(CC)CCOC(=O)c1cn2c(=O)c3cc(SC)ccc3nc2s1.Cl` [Example 17, 7-(Methylthio)-5-oxo-5H-thiazolo[2,3-b]quinazoline-2-carboxylic acid (2-diethylaminoethyl) ester hydrochloride], in assay [1], the “Rat PCA Test (% Inhibition) 16 mg/kg ip” value is reported as 52%, the “Rat PCA Test (% Inhibition) 32 mg/kg po” value turned out to be 100% and the ED50 stood at 2.85 mg/kg.

As for `CCCc1c(OCC(O)COc2ccc3c(=O)cc(C(=O)O)oc3c2CCC)ccc(C(C)=O)c1O` (stereo not drawn) [7-[3-(4-acetyl-3-hydroxy-2-propylphenoxy) -2-hydroxypropoxy]-4-oxo-8-propyl-4H-l-benzopyran-2-carboxylic acid, reference compound], in assay [2], the inhibition is listed as 98% and the oral activity entry is “inactive”. The “reduction in the skin wheal size” value in assay [3] is on record as 88%. Also, the oral activity result in assay [4] was “inactive”.

`CC(C)c1ccc2nc3sc(C(=O)N(C)CCCCc4cccnc4)cn3c(=O)c2c1`: the “Guinea Pig Broncho-constriction % Inhibition (10 mg/kg i.v.)” value in assay [2] is recorded as “Inactive”. In addition, the “Rat Skin Permeability % Inhibition (10mg/kg iv)” value in assay [3] is 72%.

`CCC(C)c1ccc2nc3sc(C(=O)NCCN(CC)CC)cn3c(=O)c2c1` (stereo not shown): the “Rat PCA Test (% Inhibition) 16 mg/kg ip” value in assay [1] is 21%.

For the molecule `CCN(CC)CCOC(=O)c1cn2c(=O)c3cc(OC)ccc3nc2s1`, in assay [1], the “Rat PCA Test (% Inhibition) 16 mg/kg ip” value came out at 100%, the “Rat PCA Test (% Inhibition) 32 mg/kg po” value was 100% and the ED50 turned out to be 1.31 mg/kg.

For the molecule `CCN(CC)CCNC(=O)c1cn2c(=O)c3cc(C(C)C)cc(C(C)C)c3nc2s1` [7,9-Bis(1-methylethyl)-N-[2-(diethylamino)ethyl] -5-oxo-5H--thiazolo[2,3-b]quinazoline-2-carboxamide hydrochloride], in assay [1], the “Rat PCA Test (% Inhibition) 16 mg/kg ip” value is 31% and the “Rat PCA Test (% Inhibition) 32 mg/kg po” value is reported as 27%.

Consider `CCN(CC)CCOC(=O)c1cn2c(=O)c3cc(C(C)C)ccc3nc2s1` [7-(1-Methylethyl)-5-oxo-5H-thiazolo[2,3-b]quinazoline-2-carboxylic acid(2-diethylaminoethyl) ester hydrochloride], for which, in assay [1], the “Rat PCA Test (% Inhibition) 16 mg/kg ip” value is given as 100%, the “Rat PCA Test (% Inhibition) 32 mg/kg po” value stood at 100% and the ED50 is 0.45 mg/kg.

`CCN(CC)CCNC(=O)c1cn2c(=O)c3cc(C(C)C)ccc3nc2s1`: the “Rat PCA Test (% Inhibition) 32 mg/kg po” value in assay [1] was determined as 50%.

With `CC(C)c1ccc2nc3sc(C(=O)NCCCCn4ccnc4)cn3c(=O)c2c1` [Example 6, N-[4-(1H-Imidazol-1-yl)butyl]-7-(1-methylethyl)-5-oxo-5H-thiazolo[2,3-b]quinazoline-2-carboxamide dihydrochloride 0.45 molar hydrate], in assay [2], the inhibition is 85%, the “Guinea Pig Broncho-constriction % Inhibition (10 mg/kg i.v.)” value is 85% and the oral activity entry is given as “active”. For the same molecule, the ED50 in assay [2] (Cavia porcellus, po, read-out: Guinea Pig Broncho-constriction ID50) worked out at 51 mg/kg. Also, in assay [3], the “reduction in the skin wheal size” value amounted to 61% and the “Rat Skin Permeability % Inhibition (10mg/kg iv)” value was 61%. For the same molecule, the “Rat Skin Permeability ID50” value in assay [4] (iv) came to 10 mg/kg. Moreover, the “Rat Skin Permeability ID50” value in assay [4] (po) amounted to 55 mg/kg. Moreover, the oral activity result in assay [4] was “active”.

As for `CC(C)c1cc(C(C)C)c2nc3sc(C(=O)NCCCCc4cccnc4)cn3c(=O)c2c1` [the 2nd table, row 8, 7,9-bis(1-methylethyl)-5-oxo-N-[4-(3-pyridinyl)butyl]-5H-thiazolo[2,3-b]quinazoline-2-carboxamide], the “Rat Skin Permeability % Inhibition (10mg/kg iv)” value in assay [3] is 38%.

`CC(C)c1ccc2nc3sc(C(=O)NCCCCc4cccnc4)cn3c(=O)c2c1` [Example 3, 7-(1-Methylethyl)-5-oxo-N-[4-(3-pyridinyl)butyl]-5H-thiazolo[2,3-b]quinazoline-2-carboxamide]: in assay [2], the inhibition is 68%, the “Guinea Pig Broncho-constriction % Inhibition (10 mg/kg i.v.)” value is 68% and the oral activity result is “active”. In assay [3], the “reduction in the skin wheal size” value was determined as 35% and the “Rat Skin Permeability % Inhibition (10mg/kg iv)” value was 35%. Also, the oral activity entry in assay [4] is “active”.
